Results from PubChem BioAssay (NCI).
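How tested: cells in 96-well plates exposed to compound for 48 hours at five concentrations. At the GI50, growth is halved. TGI is the concentration that stops growth completely.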

Columns and labels:
Assay in all cases: NCI anticancer screen, dose series, 48 h
HOP-18 NSCLC = system: HOP-18 NSCLC
M19-MEL melanoma = system: M19-MEL melanoma
DMS 114 small cell lung = system: DMS 114 small cell lung
DLD-1 colon = system: DLD-1 colon
DMS 273 small cell lung = system: DMS 273 small cell lung
XF 498 CNS = system: XF 498 CNS
SNB-78 CNS = system: SNB-78 CNS
RXF-631 renal = system: RXF-631 renal
MDA-N = system: MDA-N

Structure (SMILES) | TGI (HOP-18 NSCLC) [µM] | TGI (M19-MEL melanoma) [µM] | TGI (DMS 114 small cell lung) [µM] | TGI (DLD-1 colon) [µM] | TGI (DMS 273 small cell lung) [µM] | TGI (XF 498 CNS) [µM] | TGI (SNB-78 CNS) [µM] | TGI (RXF-631 renal) [µM] | TGI (MDA-N) [µM] | also measured
COC(=O)C1C(OCc2ccccc2)C2CCC1(OC)C=C2C (stereo not given) | > 100 | > 100 | > 100 | > 100 | > 83.9 | > 86.7 | > 100 |  |  | 
O=C(c1ccc(Cl)cc1)c1ccc(OCCSCCCCCCCCCCSCCOc2ccc(C(=O)c3ccc(Cl)cc3)cc2)cc1 |  | > 100 |  | > 100 | > 100 |  | > 100 | > 100 |  | 
COc1ccc(/C=C/NC=O)cc1 |  |  |  |  |  |  |  |  | > 100 | 
C1=Nc2ccccc2C=Nc2ccccc2C=Nc2ccccc2C=Nc2ccccc21.[Cl-].[Pt+2] | > 100 | > 100 | 46.2 | 98.4 | 55.5 | 51.1 |  | 77.9 |  | GI50 (HOP-18 NSCLC): 22.3 µM; GI50 (M19-MEL melanoma): 22.2 µM; GI50 (DMS 114 small cell lung): 12.1 µM; GI50 (DLD-1 colon): 17.8 µM; GI50 (DMS 273 small cell lung): 19 µM; GI50 (XF 498 CNS): 18.4 µM; GI50 (RXF-631 renal): 30.9 µM
COc1cc(Nc2nc3ccc(C(F)(F)F)cc3nc2-c2ccccc2)cc(OC)c1OC |  |  |  | > 100 | > 100 |  | > 100 |  |  | 
NS(=O)(=O)c1ccc(NC(=O)c2cccc3cc4ccccc4nc23)cc1 | > 100 | > 100 | > 100 | > 100 | > 100 | > 100 | > 100 | > 100 | > 100 | 
COc1cc2c(cn1)[nH]c1ccccc12 | > 100 |  | > 100 | > 100 | > 100 | > 100 | > 100 | > 100 |  | 
NNC(=O)/C(NC(=O)c1ccccc1)=C(\N)c1ccc(Cl)cc1 | > 100 | > 100 | > 100 | > 100 | > 100 |  | > 100 |  |  | 
CC(C)CN(CC(C)C)C(=O)C1CCCC[C@@H]1C(=O)O (stereo not given in full) | > 100 | > 100 | > 100 | > 100 | > 100 |  | > 100 | > 100 |  | 
NC(CC1=CCC=CC1)C(=O)O (stereo not given) |  |  |  |  |  |  |  |  | > 100 | 
C=CCn1cc(C(=O)NC(=O)NCCCCCOC(=O)CCCCCCCCCCC(=O)OCCCCCNC(=O)NC(=O)c2cn(CC=C)c(=O)n(C)c2=O)c(=O)n(C)c1=O | > 100 | > 100 | > 100 | > 100 | > 100 | > 100 | > 100 |  |  | 
Cc1cccc(C)c1NC(=O)CCc1n[nH]c(=S)o1 | > 100 | > 100 | > 100 | > 100 | > 100 |  | > 100 |  |  | 
S=c1nc(N2CCCCC2)ss1 | 88.4 | 52.3 | 42.4 | > 100 | 42.3 | 44.7 | 99.1 | 79.4 |  | 
CC(=O)/C=C/c1ccc(C)cc1 | > 100 | > 100 | > 100 | > 100 | > 100 |  | > 100 |  |  | 
COc1ccc(-c2c(N)[n+]([O-])c3ccccc3[n+]2[O-])cc1OC | > 100 | > 100 | > 100 | > 100 | > 100 |  | > 100 | > 100 |  | 
Cc1c2c(cc3c(=O)ccn(CCN(C)C)c13)c(=O)ccn2CCN(C)C | 58.6 | 30.2 | 30.1 | 28.7 | 16.3 | 22.9 | > 100 |  |  | 
CC1C(=O)O[C@H]2C1CC[C@@]1(C)[C@H](O)CC[C@@]13C[C@]2(O)OO3 (stereo not given in full) | > 100 | > 100 | > 100 | > 100 | > 100 |  |  |  |  | 
C=CC1=C(C)C2=NC1=CC1=NC(=CC3=C(C)C4=C(O)C(C(=O)OC)C(=C5NC(=C2)C(C)C5CCC(=O)OC)C4=N3)C(CC)=C1C (stereo not given) |  |  |  |  |  |  |  |  | > 100 | 
COc1ccc(-c2cc(=O)c3c(OC)c(OC)c(OC)c(OC)c3o2)c(OC)c1 |  |  |  |  |  |  |  |  | > 100 | 
CCOP(=O)(OCC)C1=NC=CC=CC1n1c(-c2ccccc2)nn(CC)c1=O (stereo not given) | > 100 | > 100 | > 100 | > 100 | > 100 |  |  | > 100 |  | 
Cc1cc(N(CCCl)CCCl)ccc1/C=N/NC(=O)Cc1cc(=O)oc2cc(O)ccc12 |  |  |  |  |  |  |  |  | 32.4 | 
O=C(CC1C=CCS1(=O)=O)NCc1ccccc1 (stereo not given) |  |  |  |  |  |  |  |  | > 100 | 

Structure (SMILES) | TGI (HOP-18 NSCLC) [µM] | TGI (M19-MEL melanoma) [µM] | TGI (DMS 114 small cell lung) [µM] | TGI (DLD-1 colon) [µM] | TGI (DMS 273 small cell lung) [µM] | TGI (XF 498 CNS) [µM] | TGI (SNB-78 CNS) [µM] | TGI (RXF-631 renal) [µM] | TGI (MDA-N) [µM] | also measured
N#CC1CC2(C(=O)C1=O)c1ccccc1-c1ccccc12 (stereo not given) | > 100 | > 100 | > 100 | > 100 | > 100 |  |  |  |  | 
CCOC(=O)/C(=C\c1ccc[nH]1)C(=O)c1ccccc1 | > 100 | > 100 | > 100 | > 100 | > 100 | > 100 | > 100 | > 100 |  | 
O=c1c2cccnc2ncn1CCN1CCCC1 |  | > 100 | > 100 | > 100 | > 100 | > 100 | > 100 |  |  | 
CC/C=C/c1cc2cc[nH]c2c2c1C(C)C[C@@H]2C (stereo not given in full) | 73.7 | 77.3 | 51 | > 100 |  |  | 67 |  |  | 
COc1ccccc1-c1cc(=O)c2ccc(OC)c(OC)c2o1 |  |  |  |  |  |  |  |  | > 100 | 
CSc1ncnc2c1CCN2 |  | > 100 | > 100 |  |  |  | > 100 |  | 8.6 | 
COc1ccc(OC)c2c(=S)c3ccccc3[nH]c12 |  | > 100 | > 100 | > 100 | > 100 | > 100 |  | > 100 | > 100 | 
Cc1nc(C(N)=S)sc1C(=O)C/C(=N/N)C(=O)Nc1ccc(Cl)cc1 |  |  |  |  |  |  |  |  | > 100 | 
C=C1C(=O)OC2CC(C)C3C=CC(=O)C3CC12 (stereo not given) | 16.9 | 9.19 | 6.22 |  | 12.2 | 3.4 | 19.2 | 13.7 | 5.73 | 
C/C(=N\N=C(N)N)C(CN(C)C)C(c1ccccc1)c1c(O)c2ccccc2oc1=O (stereo not given) | > 100 | > 100 | > 100 | > 100 | > 100 | > 100 | > 100 |  | > 100 | 
COc1cc2c(c(OC)c1OC)-c1ccc(OC)c(=O)cc1[C@@H](N(C)C=O)CC2 | > 100 | > 100 |  | > 100 | > 100 | > 23 | > 100 | > 26.2 |  | 
COc1cc(/C=C(\OC(C)=O)c2ccc3c(c2)OCO3)cc(OC)c1OC | > 100 | 30.9 | 29 | 60.6 | 33.6 | 27.7 | 91.9 |  |  | 
CS(=O)(=O)OCCN(CCOS(C)(=O)=O)c1ccc(C=O)cc1 | 48.8 | 30.2 | 28.2 | > 84 | 13.5 | 5.85 | > 100 |  | 27.2 | 
CCC(C(=O)c1ccccc1)C(CCCC(=O)Nc1c(C)cccc1C)N=O (stereo not given) | > 100 | > 100 |  | > 100 | > 100 | > 100 | > 100 | > 100 |  | 
Cc1ccc2c(c1)CNc1ccc(C)cc1CN2 | > 100 | > 100 | > 100 | > 100 | > 100 | > 100 | > 100 |  |  | 
O=C(NCc1ccncc1)C1COc2cc(-c3cc(=O)c4ccccc4o3)ccc2O1 (stereo not given) |  | > 100 |  | > 100 |  | > 100 | > 100 |  |  | 
Cc1c(N=Cc2ccc(N(CCC#N)CCC#N)cc2)c(=O)n(-c2ccccc2)n1C | > 100 | > 100 | > 100 | > 100 | > 100 | > 80.6 | > 100 |  | > 100 | 
CC(C)C(=O)/C=C/c1ccc(Cl)c(Cl)c1 | 23.5 | 32.3 | 42.3 | 34.2 |  | 25.1 | > 100 |  |  | 
Cc1ccc(Oc2ccc([N+](=O)[O-])cc2[N+](=O)[O-])c(C)c1 |  | > 100 | > 100 | > 100 | > 100 | > 100 | > 100 | > 100 |  | 
Cc1cc(=O)oc2cc(OS(C)(=O)=O)ccc12 |  |  |  |  |  |  |  |  | > 100 | 
C1COCCOCCOCCOCCO1.CC(=O)[CH-]C(C)=O.CC(=O)[CH-]C(C)=O.CC(=O)[CH-]C(C)=O.[V] | 77.9 |  | 82.1 | > 100 | 34.8 |  |  |  |  | GI50 (HOP-18 NSCLC): 28.2 µM; GI50 (DMS 114 small cell lung): 28.3 µM; GI50 (DLD-1 colon): 28 µM; GI50 (DMS 273 small cell lung): 15.7 µM
c1ccc(COC2(OCc3ccccc3)CC3OC2C2NN=NC32)cc1 (stereo not given) | 92.9 | 32.2 |  | 31.3 | 53.4 | 35 | 86.3 |  |  | 
